Reference: patent US20250034115A1, “CRYSTALLINE FORMS OF C-C CHEMOKINE RECEPTOR TYPE 4 ANTAGONIST AND USES THEREOF” (RAPT THERAPEUTICS, INC., priority 2023, published 2025)

Assay: Salt screen, comments on water content / hydration versus humidity
Assay type: physicochemical
Procedure: Experiments to form salts were performed and evaluated using 45 different acids and bases and 15 different solvents, either alone or in some combination, which are listed in Table 1 below, and notable results of those experiments are presented in Table 2 below. L-arginine Saccharin Methyl isobutyl ketone

SMILES	hygroscopicity (Additional Comments) (1.0 equiv, water, highly variable water content based on humidity)	level of hydration over humidity range (Additional Comments) (0.5 equiv, polymorph formed at higher (>70° C.) temperature compared with polymorph formed at ambient temp)
Cc1nc(N2CC([C@H]3CCCN([C@H]4C[C@](C)(C(=O)[O-])C4)C3)C2)nc(N[C@H](C)c2ccc(Cl)cc2Cl)c1Cl.[Na+] [NaOH, (1R,3r)-3-((R)-3-(1-(5-chloro-4-(((R)-1-(2,4-dichlorophenyl)ethyl)amino)-6-methylpyrimidin-2-yl)azetidin-3-yl)piperidin-1-yl)-1-methylcyclobutane-1-carboxylic acid, sodium salt]	Highly hydroscopic (highly variable	
O=C(O)[C@H](O)[C@@H](O)C(=O)O [L-Tartaric Acid]		temperature had a more stable level
